These results are taken from US7291499B2, “Transformed cell, method of screening anti-aging agent and anti-aging agent” (priority 2001, dated 2007).

Assay [1] concerns WI-38 cell with activated Raf kinase region-estrogen receptor fusion gene. The assay can be described thus: Cell growth in tamoxifen-inducible activated Raf cellular senescence system. The conditions noted are these: for inhibition of the termination of cell growth induced by the activation of Raf: Raf activated by 10 nM tamoxifen, 25 μM inhibitor added simultaneously. Type of assay: cell-based, human. The protocol: (§1) This is a result of fusing an estrogen receptor gene with a sequence coding for the kinase region of activated Raf gene.
(§2) (1) In accordance with the aforementioned method, induction of cellular senescence was tested by carrying out gene transfer into the WI-38 cell and thereby constructing a system which can induce cellular senescence by the administration of tamoxifen.
(§3) The results are shown in FIG. 12, FIG. 13, FIG. 14 and FIG. 15.

Assay [2] has the same test system. The assay can be described thus: β-galactosidase positive cells in tamoxifen-inducible activated Raf cellular senescence system. The conditions noted are these: for inhibition of the increase of cellular senescence-specific β-galactosidase positive cell induced by the activation of Raf: Raf activated by 10 nM tamoxifen, 25 μM inhibitor added simultaneously. Type of assay: cell-based, human. Here is the method: as §1, §2, §3

Assay [3] has as its system human normal fibroblast WI-38. In words: Cell growth curve (WST-1 relative cell number) of young and senescent WI-38 cells with p38 protein inhibitor. It counts as cell-based.
Excerpt: In the example, effect of a p38 protein inhibitor SB203580 was compared using the same young cell (42 times of division) and senescent cell (61 times of division) of the human normal fibroblast WI-38 used in Reference Example 1. Specifically, the same procedure of the following Example 2 (2) was repeated, except that a young cell (42 times of division) and a senescent cell (61 times of division) of the human normal fibroblast WI-38 cultured in the same manner in Reference Example 1(1) were used instead of the transformed cell.
In FIG. 3, the polygonal line a is cell growth curve of the young cell in the presence of SB203580, the polygonal line b is cell growth curve of the young cell in the absence of SB203580, the polygonal line c is cell growth curve of the senescent cell in the presence of SB203580 and the polygonal line d is cell growth curve of the senescent cell in the absence of SB203580. The symbol “+SB” in FIG. 3 means that it was treated with 10 μmol//L of SB203580.
The relative number of cells during these 6 days was measured every other day using a commercially available kit [Cell Counting Kit (WST-1 assay), manufactured. by DOJINDO].
The WST-1 assay is a method to know indirectly degree of cell growth ability with the use of the calorimetric determination of the activity of dehydration reactions wherein intracellular lactate dehydrogenase and the like are related.
Measurement and calculation of the relative cell number were specifically carried out by the following method. That is, 1,000 cells per each well of a 96 well plate were precultured for 24 hours. […] After the reaction, measurement was carried out using a plate reader (measuring wave length=450 nm). These were measured on three samples on each of the measuring days (on the 0th, 2nd, 4th and 6th days) during the growth period, and the average values were used as the data of respective measuring days. The relative number of cells of measured values on respective measuring days was calculated by defining the average of measured values on the 0th day as 1.
In assay [4] the test system is human normal fibroblast WI-38. In words: Ratio of S phase cell by FACS analysis (BrdU labeling) in young and senescent WI-38 cells. Type of assay: cell-based. The protocol: Also, the ratio of S phase cells in each treated group was determined by FACS analysis in accordance with the procedure described in the following Example 2(3-a), and the results shown in FIG. 4. The symbol “+” in FIG. 4 means that it was treated with 10 μmol//L of SB203580.
[…] Next, the cells were fixed with 70% ethanol and treated with 2 mol//L hydrochloric acid for 30 minutes. Subsequently, they were neutralized with 0.1 mol//L sodium borate and then allowed to react with FITC-labeled anti-BrdU antibody (manufactured by BECTON DICKINSON) for 1 hour. After completion of the reaction, the cells were washed with a washing buffer [PBS containing 0.5% Tween 20 and 1% bovine serum albumin (BSA)] and suspended in a PBS solution containing 5 μg/ml ProPidium Iodide (PI). The samples were analyzed by a two dimensional flow cytometry.

Assay [5] relates to human normal fibroblast WI-38. The assay can be described thus: Cell morphology and cellular senescence-specific β-galactosidase activity in WI-38 cells. Type of assay: cell-based. The conditions noted are these: senescent cell (61 times of division), SB203580-treated. The protocol: Specifically, young and senescent cells of the human normal fibroblast WI-38 were respectively washed with PBS and then fixed using 0.5% glutaraldehyde aqueous solution. After the fixation, the cells were soaked in a staining solution [prepared by dissolving 1 mg/ml of X-gal (5-bromo-4-chloro-3-indolyl-[…]), 5 mmol//L potassium ferrocyanide, 5 mmol//L potassium feriocyanide and 1 mmol//L magnesium chloride in phosphate buffered saline (PBS; pH 6.0)] and allowed to react at 37° C. for 5 hours or more.
In addition, cell morphology and β-galactosidase activity in each treated group were analyzed in accordance with the procedure described in Reference Example 1(2).

Assay [6] concerns MKK6 gene- or MKK6EE gene-introduced human normal fibroblast WI-38. In words: Ratio of β-galactosidase positive cells in MKK6 or MKK6EE gene-introduced transformed cell. It counts as cell-based. The conditions noted are these: 10 μmol//L SB203580, culturing period of 6 days.
Description: Specifically, young and senescent cells of the human normal fibroblast WI-38 were respectively washed with PBS and then fixed using 0.5% glutaraldehyde aqueous solution. After the fixation, the cells were soaked in a staining solution [prepared by dissolving 1 mg/ml of X-gal (5-bromo-4-chloro-3-indolyl-β-galactosidase), 5 mmol//L potassium ferrocyanide, 5 mmol//L potassium feriocyanide and 1 mmol//L magnesium chloride in phosphate buffered saline (PBS; pH 6.0)] and allowed to react at 37° C. for 5 hours or more.
Next, the procedure described in Reference Example 1 (2) was repeated, except that the two species of the transformed cell of the present invention and one species of a control cell wherein the vector alone was introduced, obtained by repeating the same procedure of Example 2(1), (cells after a culturing period of 6 days in each case; SB203580-untreated cells) and the two species of the transformed cell of the present invention and one species of a control cell wherein the vector alone was introduced, obtained by repeating the same procedure of Example 2(2), (cells after a culturing period of 6 days in each case; SB203580-treated cells) were used. […]
Assay [7] shares this test system. The conditions noted are these: 10 μmol//L SB203580 from the 4th day after infection, 6 days culture.
Description: As the target cell, young cell (42 PD; 5×10^5 cells/10 cm dish) of the human normal fibroblast WI-38 was cultured for 8 hours in the virus supernatant to which polybrene (final concentration=8 μg/ml) had been added. The virus supernatant was once removed, and then fresh virus supernatant [containing polybrene (final concentration=8 μg/ml)] was again added, followed by the culturing for 8 hours. Each of the infection-treated cells was cultured for 3 days in DMEM containing puromycin (2.5 μg/ml).
On the 4th day after carrying out the infection, the medium was changed to DMEM containing 2.5% dimethyl sulfoxide (DMSO), followed by the culturing for 6 days. […] The relative number of cells during these 6 days was measured every other day using a commercially available kit [Cell Counting Kit (WST-1 assay), manufactured. by DOJINDO].
Measurement and calculation of the relative cell number were specifically carried out by the following method. […] After the reaction, measurement was carried out using a plate reader (measuring wave length=450 nm). These were measured on three samples on each of the measuring days (on the 0th, 2nd, 4th and 6th days) during the growth period, and the average values were used as the data of respective measuring days. The relative number of cells of measured values on respective measuring days was calculated by defining the average of measured values on the 0th day as 1. […]
Assay [8] deals with phosphorylation type p38 protein (active type p38 protein). In words: Western blotting of phosphorylated state of p38 protein. It counts as cell-based, human. The conditions noted are these: young cell (42 PD), 30 μmol//L anisomycin for 30 minutes, positive control, versus untreated young cell. The text has this: In this reference example, the phosphorylated state of p38 protein in young and senescent cells of the human normal fibroblast WI-38 was confirmed by a Western blotting respectively using an antibody capable of detecting total p38 protein and another antibody capable of specifically detecting a phosphorylation type p38 protein (namely active type p38 protein) alone.
Specifically, young and senescent cells of the human normal fibroblast WI-38 (about 5×10^6 cells) cultured in the same manner as in Reference Example 1(1) were respectively dissolved in 0.1 ml of a buffer solution for dissolution [lysis buffer; 150 mmol//L sodium chloride, 0.5% NP-40, 50 mmol//L Tris-HCl (pH 7.5), 3 mmol//L EDTA, 3 mmol//L EGTA, 3 mmol//L glycerophosphate, […] Na3VO4, 1 μg/ml leupeptin and 1 mmol//L phenylmethanesulfonyl fluoride (PMSF)].
Subsequently, each extraction sample corresponding to 30 μg as the amount of protein was separated by an SDS polyacrylamide gel electrophoresis in the usual way and then transferred on a membrane (Immobilon-P membrane; manufactured by Millipore). After subjecting the membrane to a blocking treatment using a commercially available blocking agent (Block Ace; manufactured. by Dainippon Pharmaceutical), a primary antibody reaction and a secondary antibody reaction were carried out in order. […]

The mark [9] stands for this setting: induction of cellular senescence via Raf-estrogen receptor fusion.
Where [10] appears, read: young cell (42 times of division), 10 μmol//L SB203580, same in presence or absence.

For the molecule `COc1cccc(-c2cc(=O)c3ccccc3o2)c1N` [PD98059], the “inhibition of the termination of cell growth induced by the activation of Raf” value in assay [1] was “partially inhibited”. The “inhibition of the increase of cellular senescence-specific β-galactosidase positive cell induced by the activation of Raf” value in assay [2] was “partially inhibited”.

Consider `CC/C(=C(\c1ccccc1)c1ccc(OCCN(C)C)cc1)c1ccccc1` [tamoxifen], for which the “tamoxifen concentration at which termination of cell growth was observed” value in assay [1] (setting [9]) is given as not below 1 nM. In assay [2] (setting [9]), the “tamoxifen concentration at which increase of cellular senescence-specific β-galactosidase positive cell was observed” value is reported as not below 1 nM.

With `C[S+]([O-])c1ccc(-c2nc(-c3ccc(F)cc3)c(-c3ccncc3)[nH]2)cc1` (stereo not shown) [SB203580, 4-[4-(4-fluorophenyl)-2-[4-(methylsulfinyl)phenyl]-1H-imidazol-5-yl]-pyridine], the “anti-aging activity upon senescent cell” value in assay [3] (senescent cell (61 PD) of WI-38, illustrative data not shown) is reported as “showed the anti-aging activity”. Also, the “cell growth in comparison with the untreated case” value in assay [3] (senescent cell (61 times of division), 10 μmol//L SB203580) is “accelerated growth”. The doubling time entry in assay [3] (setting [10]) is reported as “about 2 days”. Also, in assay [4] (senescent cell (61 times of division), 10 μmol//L SB203580, 72 hours of BrdU labeling, untreated about 5%), the S phase cell entry is on record as “about 25%”. Further, the S phase cell result in assay [4] (setting [10]) is “about 20%”. In assay [5], the “cellular senescence-specific β-galactosidase-positive degree” value is recorded as “low” and the “morphology of the flat cytoplasm” value was “became thin”. The “increase of the cellular senescence-specific β-galactosidase positive cells” value in assay [6] is “inhibited”. In assay [1], the “inhibition of the termination of cell growth induced by the activation of Raf” value is listed as “more strongly than the PD98059”. In assay [2], the “inhibition of the increase of cellular senescence-specific β-galactosidase positive cell induced by the activation of Raf” value is “more strongly than the PD98059”. Besides, the “growth inhibitory effect by the MKK6 gene or MKK6EE gene” value in assay [7] was “inhibited”.

On to `COc1ccc(C[C@H]2NC[C@H](O)[C@H]2OC(C)=O)cc1` [anisomycin], for which the “active type p38 protein amount” value in assay [8] is recorded as “increased”.
